The record followed here is a melting point compilation (Tetko et al.; mined from patent text by program, amines drawn as free bases though some values may be those of a salt).

Each structure is given as a SMILES string.

For orientation: melting point means the temperature, or range, at which the solid turns liquid. In turn, `Cc1ccc(S(=O)(=O)N2CCCC2c2ccccc2F)cc1` (racemic) displayed a melting point of 143 °C.
Regarding `O=C(Nc1cccc(F)c1)c1cccc(Oc2cccc(C(F)(F)F)c2)n1`, the melting point was in the range of 74 to 75 °C.
As for `O=C(Nc1nc(OCc2ccc(F)cc2)ncc1F)Oc1ccccc1`, the melting point was 129 to 131 °C.
Compound `Cc1nc2ccc(Cl)cc2s1` gave a melting point of 85 to 86 °C.
The result for `CCCN(CCC)Cc1nc(-c2ncn3c2[C@@H]2CCN2C(=O)c2c(Cl)cccc2-3)no1` reads 147 to 153 °C; that for `COC(=O)NN=Cc1ccc(Oc2ccc(F)cc2)cc1`, 109 to 111 °C; that for `Cc1[nH]c(-c2cccc(C(F)(F)F)c2)nc1C=O`, 180 °C.
Consider `CC(=O)N1CCCC(=O)c2cc(Cl)c(Cl)cc2CCC1=O`, for which the melting point was 163 to 165 °C.
`CC(C(=O)Oc1cc(=O)n(-c2ccccc2)c2ncccc12)c1ccccc1` (centres undefined) showed a melting point of 166 to 168 °C.
Take `COc1cc2c(cc1OC)N(C(=O)c1ccc(-c3ccccc3C(F)(F)F)c(C)c1)Cc1cccn1C2`: the melting point fell in the range of 187 to 188 °C.
Consider `COc1cccc2c(=O)n3c(C)c(Br)sc3nc12`, for which the melting point fell in the range of 198 to 199 °C.
For the compound `CC1(C)C=C(CN2C/C(=C\c3ccc(F)cc3)C(=O)/C(=C/c3ccc(F)cc3)C2)C(C)(C)N1O`, the melting point lay within 142 to 144 °C.
The result for `O=C(O)c1ccc(OCCNC(=O)C2Cc3ccccc3N2S(=O)(=O)c2ccc(-c3cccc(C(F)(F)F)c3)cc2)c(F)c1` (centres undefined) reads 96 to 104 °C; that for `C/C(=C(\C#N)C(=S)/N=C/N(C)C)N1CCCN(c2ccc(C#N)cc2)CC1`, 120 to 126 °C; that for `CCc1cc(C)c2c(C3CCCCC3)cc(=O)n(CC)c2n1`, 79 to 80 °C.
For `CCN(c1ccc(C(=O)Nc2cn3cc(Cl)ccc3n2)cc1)S(C)(=O)=O`, the melting point is 245 to 247 °C.
The value for `CN(C)CC1(c2cccc(C(F)(F)F)c2)CCN(C(=O)CN2CCN(c3ccccc3)CC2)CC1` was 123 to 124 °C; that for `OC(COCC1CNCCO1)c1ccc2ccccc2c1` (centres undefined) was 141 to 144 °C; that for `Cc1ccc(C(=O)NC(NC(=NC#N)Nc2ccccc2F)C(Cl)(Cl)Cl)cc1` (centres undefined) was 220 to 222 °C.
For the compound `CC(C)c1cc(C(C)C)c(C(F)C(=O)c2ccc(C(C)C)c(OS(N)(=O)=O)c2C(C)C)c(C(C)C)c1` (centres undefined), the melting point was in the range of 130 to 132 °C.
In turn, `CON=C1Cc2ccccc2N(C(N)=O)c2ccccc21` came in with a melting point of 158 to 159 °C.
The result for `CNS(=O)(=O)Cc1ccc2[nH]cc(CCCN3C(=O)c4ccccc4C3=O)c2c1` reads 58 to 66 °C; that for `O=C(c1cc(Cl)ccc1Nc1ccncc1)N1CCCCC1`, 158 to 159 °C; that for `COc1ccc(Cn2cnc3c(-c4ccco4)ncnc32)cc1C`, 169 to 170 °C.
`CC1OC(Cc2cccc3c2C(=O)c2ccccc2C3=O)CC(N)C1O` (centres undefined) yielded a melting point of more than 280 °C.
On to `COc1ccc([C@H]2[C@@H](c3ccccc3)C2(Cl)Cl)cc1` (relative stereo), for which the melting point fell in the range of 59 to 60 °C.
`O=Cc1coc2cc3c(cc2c1=O)OCO3` yielded a melting point of 232 to 233 °C.
Compound `O=S1(=O)NC(C2CCCCC2)=Nc2cccc(-c3ccccn3)c21` had a melting point of 200 to 203 °C.
With `N#Cc1nc(Cl)c(-c2c(F)cc(F)cc2F)c(N2CCCO2)n1`, the melting point lay within 107 to 113 °C.
As to `CC(NC(=O)Cc1cc(F)cc(F)c1)C(=O)NC1C(=O)NCc2ccc(F)cc21` (centres undefined), the melting point lay in the range of 195 to 200 °C.
Compound `Cc1cc2c(c(C)c1NC(=O)OC(C)(C)C)C(=O)C(C)(C)O2` showed a melting point of 156 to 157 °C.
As to `CCc1cccc(CC(=O)O)c1OCCCc1cn(-c2ccc(Br)cn2)nc1C(CC)CC`, the melting point came out at 123 °C.
As for `CCOc1c(C)c(N2CCN(c3ccc(OC)c(C)c3)CC2)c(C)c2c1OC(C)C2` (centres undefined), the melting point lay in the range of 80 to 83 °C.
Consider `CCSc1ccc(C(=O)NCc2ccc3c(c2)C(=O)N(C2CCC(=O)NC2=O)C3=O)nn1` (centres undefined), for which the melting point is 205 to 207 °C.
